{"source": "patent US11628169B2", "about": "“Therapeutic drug for motor complications in Parkinson's disease” (Sumitomo Pharma Co., Ltd., priority 2020, dated 2023)", "type_in_all_cases": "in vivo", "key": {"PD-LID rat model [1]": {"system": "PD-LID rat model", "experiment": "ON score and ON time without dyskinesia in PD-LID rat model", "method": "To make a PD-LID rat model, a mixture of levodopa methyl ester hydrochloride (6 mg/kg; Sigma-Aldrich) dissolved in saline and benserazide hydrochloride (15 mg/kg; Sigma-Aldrich) (hereinafter, also referred to as “levodopa containing solution”) was intraperitoneally administered once daily to 6-OHDA-lesioned rats. The levodopa containing solution was repeatedly administered for 3 weeks or longer to observe and evaluate the behavior. The behavior was observed and evaluated in a transparent acrylic cage for 1 minute every 20 minutes after 20 minutes from the intraperitoneal administration of the levodopa containing solution, up until after 3 hours from administration. […] Individuals with a total AIMs score of less than 10 were excluded from the test as not manifesting a dyskinesia-like symptom. The behavior was observed and evaluated before the drug evaluation date. […] For an indicator of dyskinesia behavior, the sum of the Limb AIMs, Axial AIMs, and Orolingual AIMs at each evaluation point was used as the AIMs score. For the rotational behavior (ON score), Locomotive behavior at each evaluation point was used as an indicator. […] For ON time without dyskinesia, the period during which the AIMs score is 0 and Locomotive behavior is 1 or greater at each evaluation point was added. Duration of action of levodopa without a dyskinesia symptom (ON time without dyskinesia) refers to the aggregate time with no dyskinesia during the antiparkinsonian action effective time, i.e., “ON-time”, and defined as the time during which the dyskinesia symptom (AIMs) score is 0 and the rotational behavior (Locomotive behavior) score is 1 or greater at each evaluation point after levodopa administration. […] After 5 minutes, a levodopa containing solution was intraperitoneally administered, and the behavior was observed and evaluated. The results in the drawings are indicated in terms of mean value±standard error. […] For evaluation of a tape agent, the abdominal regions of the rats were shaved prior to the evaluation date. […] After 4 hours from application, a levodopa containing solution was intraperitoneally administered to observe and evaluation the behavior. The results in the drawings are indicated in terms of mean value±standard error. Individuals with 50% or more of the tape agent coming off during the test were excluded from analysis."}, "PD-LID rat model [2]": {"system": "PD-LID rat model", "experiment": "Dyskinesia-like symptom (AIMs) score in PD-LID rat model", "settings": "for total dyskinesia-like symptom (AIMs) score in 3 hours: levodopa 5 min later, vs solvent group", "method": "To make a PD-LID rat model, a mixture of levodopa methyl ester hydrochloride (6 mg/kg; Sigma-Aldrich) dissolved in saline and benserazide hydrochloride (15 mg/kg; Sigma-Aldrich) (hereinafter, also referred to as “levodopa containing solution”) was intraperitoneally administered once daily to 6-OHDA-lesioned rats. The levodopa containing solution was repeatedly administered for 3 weeks or longer to observe and evaluate the behavior. The behavior was observed and evaluated in a transparent acrylic cage for 1 minute every 20 minutes after 20 minutes from the intraperitoneal administration of the levodopa containing solution, up until after 3 hours from administration. […] The sum of the scores for Limb AIMs, Axial AIMs, and Orolingual AIMs in 3 hours was used as the total dyskinesia-like symptom (AIMs) score. Individuals with a total AIMs score of less than 10 were excluded from the test as not manifesting a dyskinesia-like symptom. The behavior was observed and evaluated before the drug evaluation date. The rats were assigned to each dosing group by using the 3 hour total dyskinesia-like symptom (AIMs) score, Locomotive behavior score, and rat body weight as indicators, which were used for evaluation of drugs. […]\nAfter 4 hours from application, a levodopa containing solution was intraperitoneally administered to observe and evaluate the behavior. Individuals with 50% or more of the tape agent coming off during the test were excluded from analysis. […]\nAs in Example 2, a levodopa containing solution was repeated administered to 6-0HDA-lesioned rats for 3 weeks or longer to observe and evaluate the behavior. The behavior was observed and evaluated before the drug evaluation date. The rats were assigned to each dosing group by using the 3 hour dyskinesia-like symptom (AIMs) score, Locomotive behavior score, and rat body weight as indicators, which were used for evaluation of drugs. However, individuals with a total AIMs score of less than 10 were excluded from the test as lacking manifestation of a dyskinesia-like symptom. Individuals with a body weight deviating 10% or more from the mean body weight were also excluded from the test to minimize variation in the dosage for each individual. […]\nAfter 4 hours, a levodopa containing solution was administered to observe and evaluate the behavior. […]\nThe prepared solution was used after injection into an ALZET® Osmotic Pump MODEL 2ML2 (4.53 μL/hour; DURECT) for releasing a drug solution at a stable rate for 2 weeks. […]\nThe behavior was observed and evaluated using the same method as Example 2. […] After 5 minutes, a levodopa containing solution was intraperitoneally administered, and the behavior was observed and evaluated. The results in the drawings are indicated in terms of mean value […] standard error. The test results were statistically analyzed by comparison with the solvent administration group by Steel test using the total dyskinesia-like symptom (AIMs) score in 3 hours and total dyskinesia-like symptom score in 100 to 180 minutes as parameters. * indicates p<0.05, meaning that there is a significant difference.\nThe behavior was observed and evaluated using the same method in Example 2. […] The test results were statistically analyzed by comparison with the solvent administration group by Steel test by using the total dyskinesia-like symptom (AIMs) score in 3 hours and total dyskinesia-like symptom score in 100 to 180 minutes as parameters."}, "[3]": {"system": "rat Vogel conflict test model", "experiment": "Anxiolytic action in rat Vogel conflict test model", "settings": "effect on PD-LID evaluated in 6-OHDA-lesioned rats", "method": "The anxiolytic action was evaluated using a rat Vogel conflict test model, and the effect on PD-LID was evaluated in 6-0HDA-lesioned rats."}, "PD-LID rat model [4]": {"system": "PD-LID rat model", "experiment": "Dyskinesia-like symptom (AIMs) score in PD-LID rat model"}, "[5]": {"settings": "continuous subcutaneous infusion 1.25 mg/kg/hour, vs solvent"}, "[6]": {"settings": "oral 6.7 mg/kg as free form (10 mg/kg as citrate)"}, "[7]": {"settings": "oral 67 mg/kg as free form (100 mg/kg as citrate)"}, "[8]": {"settings": "transdermal condition 1, 37 mg/kg as free form"}, "[9]": {"settings": "transdermal condition 2 (stripping), 45 mg/kg as free form"}}, "note": "Where a name gives a salt, the structure may show the parent alone."}
{"smiles": "O=C1[C@@H]2[C@H]3CC[C@H](C3)[C@@H]2C(=O)N1CCCCN1CCN(c2ncccn2)CC1", "note": "[tandospirone, (1R,2S,3R,4S)—N-[4-{4-(pyrimidine-2-yl)piperadine-1-yl}butyl]-2,3-bicyclo[2.2.1]heptanedicarboximide]", "values": [{"measurement": "(iii) Duration of action of levodopa without dyskinesia symptom (ON time without dyskinesia)", "setting": "PD-LID rat model [1]; oral 6.7 mg/kg as free form (10 mg/kg as citrate), vs solvent group", "value": "Ineffective"}, {"measurement": "(iii) Duration of action of levodopa without dyskinesia symptom (ON time without dyskinesia)", "setting": "PD-LID rat model [1]; oral 20 mg/kg as free form (30 mg/kg as citrate), vs solvent group", "value": "Ineffective"}, {"measurement": "(iii) Duration of action of levodopa without dyskinesia symptom (ON time without dyskinesia)", "setting": "PD-LID rat model [1]; transdermal condition 1 (no stripping), 37 mg/kg as free form, 180 min, prolongation vs placebo tape", "value": 21.7, "unit": "min"}, {"measurement": "(iii) Duration of action of levodopa without dyskinesia symptom (ON time without dyskinesia)", "setting": "PD-LID rat model [1]; transdermal condition 2 (stripping), 45 mg/kg as free form, 180 min, prolongation vs placebo tape", "value": 77.8, "unit": "min"}, {"measurement": "total dyskinesia-like symptom score in 100 to 180 minutes", "setting": "PD-LID rat model [2]; [5]", "value": "significant improvement"}, {"measurement": "dyskinesia-like symptoms (total AIMs score in 3 hours)", "setting": "PD-LID rat model [2]; continuous subcutaneous infusion 0.05, 0.25, 1.25 mg/kg/hour, levodopa 4 hours after pump implant, vs solvent", "value": "dose-dependently improved dyskinesia-like symptoms"}, {"measurement": "anxiolytic action compared with effect on PD-LID", "setting": "[3]", "value": "exerted at the same dosage"}, {"measurement": "dyskinesia-like symptoms (total AIMs score in 3 hours)", "setting": "PD-LID rat model [4]; [5]", "value": "significant improvement"}, {"measurement": "(i) Degree of improvement in indicator of dyskinesia symptom (total AIMs score in 3 hours, solvent minus tandospirone group)", "setting": "PD-LID rat model [4]; [6]", "value": "Ineffective"}, {"measurement": "(ii) Indicator of rebound symptom of dyskinesia (total dyskinesia-like symptom score in 100 to 180 minutes, solvent minus tandospirone group)", "setting": "PD-LID rat model [4]; [6]", "value": "No effect"}, {"measurement": "(i) Degree of improvement in indicator of dyskinesia symptom (total AIMs score in 3 hours, solvent minus tandospirone group)", "setting": "PD-LID rat model [4]; oral 20 mg/kg as free form (30 mg/kg as citrate)", "value": "Ineffective"}, {"measurement": "(ii) Indicator of rebound symptom of dyskinesia (total dyskinesia-like symptom score in 100 to 180 minutes, solvent minus tandospirone group)", "setting": "PD-LID rat model [4]; oral 20 mg/kg as free form (30 mg/kg as citrate), experiment printed as (FIG. 7)", "value": "−9.1"}, {"measurement": "(ii) Indicator of rebound symptom of dyskinesia (total dyskinesia-like symptom score in 100 to 180 minutes, solvent minus tandospirone group)", "setting": "PD-LID rat model [4]; oral 20 mg/kg as free form (30 mg/kg as citrate), experiment printed as (FIGS. 8A-8B)", "value": "−8.5"}, {"measurement": "(i) Degree of improvement in indicator of dyskinesia symptom (total AIMs score in 3 hours, solvent minus tandospirone group)", "setting": "PD-LID rat model [4]; [7]", "value": "Ineffective"}, {"measurement": "(ii) Indicator of rebound symptom of dyskinesia (total dyskinesia-like symptom score in 100 to 180 minutes, solvent minus tandospirone group)", "setting": "PD-LID rat model [4]; [7]", "value": "−10.1"}, {"measurement": "(i) Degree of improvement in indicator of dyskinesia symptom (total AIMs score in 3 hours, placebo minus tandospirone group)", "setting": "PD-LID rat model [4]; [8]", "value": 17.7}, {"measurement": "(ii) Indicator of rebound symptom of dyskinesia (total dyskinesia-like symptom score in 100 to 180 minutes, placebo minus tandospirone group)", "setting": "PD-LID rat model [4]; [8]", "value": "No effect"}, {"measurement": "(i) Degree of improvement in indicator of dyskinesia symptom (total AIMs score in 3 hours, placebo minus tandospirone group)", "setting": "PD-LID rat model [4]; [9]", "value": 27.1}, {"measurement": "(ii) Indicator of rebound symptom of dyskinesia (total dyskinesia-like symptom score in 100 to 180 minutes, placebo minus tandospirone group)", "setting": "PD-LID rat model [4]; [9]", "value": "No effect"}]}
{"smiles": "c1cnc(N2CCNCC2)nc1", "note": "[1-PP dihydrochloride, 1-(2-Pyrimidyl)piperazine]", "values": [{"measurement": "total dyskinesia-like symptom (AIMs) score in 3 hours", "setting": "PD-LID rat model [2]; subcutaneous 10 mg/kg", "value": "significant change in the total AIMs score was not found"}, {"measurement": "total dyskinesia-like symptom (AIMs) score in 3 hours", "setting": "PD-LID rat model [2]; subcutaneous 30 mg/kg", "value": "significant change in the total AIMs score was not found"}, {"measurement": "total dyskinesia-like symptom score in 100 to 180 minutes", "setting": "PD-LID rat model [4]; subcutaneous 10 or 30 mg/kg, vs solvent group", "value": "increasing trend in the total AIMs score, albeit not significant"}]}
